Experimental data as given in patent publication US20220152077A1 (THE UNIVERSITY OF WARWICK, priority 2019, published 2022).
Entries after “also recorded” stand apart in the source; their conditions may differ. Like-named read-outs stand apart in the source and are kept apart here.

Experiments:
[1] = test system: synaptic transmission in the hippocampus; experiment: Extracellular fEPSP recording in hippocampal slices (synaptic transmission); type: cell-based, rat
Experimental: (§1) Preparation of hippocampal slices: Sagittal slices of hippocampus (300-400 μm) were prepared from male Sprague Dawley rats, at postnatal days 12 to 20. Rats were kept on a 12-hour light-dark cycle with slices made 90 minutes after entering the light cycle. […] The brain was removed, cut down the mid line and the two sides of the brain stuck down to a metal base plate. […] Slices were stored at 34° C. for 1 to 6 hours in aCSF (1 mM MgCl2, 2 mM CaCl2) before use.
Extracellular recording: A slice was transferred to the recording chamber, submerged in aCSF and perfused at 4 to 6 mL/min (32° C.). The slice was placed on a grid allowing perfusion above and below the tissue and all tubing was gas tight (to prevent loss of oxygen). For extracellular recording, an aCSF filled microelectrode was placed on the surface of stratum radiatum in CA1. […] For fEPSPs a 10 to 20 minute baseline was recorded at a stimulus intensity that gave 40 to 50% of the maximal response. […] For fEPSP slope, a 1 ms linear region after the fibre volley was measured. Extracellular recordings were made independently on two electrophysiology rigs.
Statistical significance was tested using the unpaired t-test and one-way and two-way ANOVAs with Bonferroni correction for multiple comparisons.
(§2) Data Analysis. […] Statistical significance was tested as indicated in the text using paired or unpaired t-tests or one-way or two-way ANOVAs with repeated measures (RM) as appropriate. Bonferroni corrections for multiple comparisons were performed. All in vitro cell signalling assay data was analysed using Prism 7.0e (Graphpad software, San Diego, Calif.), with all concentration-response curves being fitted using a 3 parameter logistic equation to calculate response range and IC50. All cAMP data was normalised to a forskolin concentration-response curve ran in parallel to each assay. […] Radioligand displacement curves were fitted to the one-site competition binding equation yielding log Ki values. […] To determine the extent of ligand-induced recruitment of β-arrestin2-YFP to either the A1R or A3R, the BRET signal was calculated by subtracting the 530 nm/450 nm emission for vehicle-treated cells from ligand-treated cells (ligand-induced ΔBRET). ΔBRET for each concentration at 5 minutes (maximum response) was used to produce concentration-response curves.

[2] = test system: membrane potential of pyramidal cells; experiment: Whole cell current clamp recording of membrane potential, CA1 pyramidal cells; type: cell-based, rat
Experimental: as §1
Whole cell patch clamp recording from hippocampal pyramidal cells: A slice was transferred to the recording chamber and perfused at 3 mL/min with aCSF at 32±0.5° C. Slices were visualised using IR-DIC optics with an Olympus BX151W microscope (Scientifica) and a CCD camera (Hitachi). […] Voltage and current recordings were obtained using an Axon Multiclamp 700B amplifier (Molecular Devices, USA) and digitised at 20 KHz. Data acquisition and analysis was performed using Pclamp 10 (Molecular Devices). For voltage clamp experiments, CA1 pyramidal cells were held at −60 mV. Peptides to interfere with G protein signalling were introduced via the patch pipette into the recorded cell.

[3] = test system: adenosine-induced outward current in CA1 pyramidal cells; experiment: Whole-cell voltage clamp, adenosine-induced outward current with G protein interfering peptides; type: cell-based, rat; conditions: for mean amplitude of the adenosine-induced outward current with intracellular peptide: peptide 100 μM via patch pipette
Experimental: Whole cell patch clamp recording from hippocampal pyramidal cells: A slice was transferred to the recording chamber and perfused at 3 mL/min with aCSF at 32±0.5° C. Slices were visualised using IR-DIC optics with an Olympus BX151W microscope (Scientifica) and a CCD camera (Hitachi). Whole-cell current clamp recordings were made from pyramidal cells in area CA1 of the hippocampus using patch pipettes (5 to 10 MΩ) manufactured from thick walled glass (Harvard Apparatus, Edenbridge UK) and containing (mM): potassium gluconate 135, NaCl 7, HEPES 10, EGTA 0.5, phosphocreatine 10, MgATP 2, NaGTP 0.3 and biocytin 1 mg/mL (290 mOSM, pH 7.2). Voltage and current recordings were obtained using an Axon Multiclamp 700B amplifier (Molecular Devices, USA) and digitised at 20 KHz. Data acquisition and analysis was performed using Pclamp 10 (Molecular Devices). For voltage clamp experiments, CA1 pyramidal cells were held at −60 mV. Peptides to interfere with G protein signalling were introduced via the patch pipette into the recorded cell. […].
Drugs: Drugs were made up as stock solutions (1 to 10 mM) and then diluted in aCSF on the day of use. Compounds were dissolved in dimethyl-sulphoxide (DMSO, 0.01% final concentration of DMSO). […]. Peptides for interfering with G protein signalling were obtained from Hello Bio (Bristol, UK) and were based on published sequences (Varani et al., Adv Exp Med Biol 1051, 193-232 (2017)). […] The scrambled version was […]. […] Peptides were made up as stock solutions (2 mM) and stored at −20° C. The stock solutions were dissolved in filtered intracellular solution just before use.

[4] = test system: urethane-anaesthetised, spontaneously breathing adult rats; experiment: In vivo anaesthetised rat preparation, heart rate and mean arterial blood pressure
[5] = test system: seizure activity induced in hippocampal slices; experiment: Seizure model in hippocampal slices (no added Mg2+, 6 mM K+ aCSF); type: cell-based, rat; conditions: adenosine 20-100 μM, NECA 300 nM, CPA 300 nM, BnOCPA 300 nM to 1 μM
Experimental: as §1
Seizure model: Seizure activity was induced in hippocampal slices using aCSF which contained no added Mg^2+ and with the total K^+ concentration increased to 6 mM with KCl. Removal of extracellular Mg^2+ facilitates NMDA receptor activation producing long lasting EPSPS, which can sum together to produce tonic activation. Increasing the extracellular concentration of K^+ depolarises neurons leading to firing and release of glutamate to sustain activity. Both the increase in K^+ concentration and removal of Mg^2+ are required to produce spontaneous activity in hippocampal slices. Spontaneous activity was measured with an aCSF-filled microelectrode placed within stratum radiatum in CA1.

isolated frog heart = experiment: Frog heart preparation, heart rate; parameters: species or system Xenopus leavis
Experimental: Frog heart preparation: Xenopus […] frogs (young adult males) were supplied from Portsmouth Xenopus Resource Centre. Frogs were euthanized with MS222 (0.2% at a pH of 7), decapitated and pithed. The animals were dissected to reveal the heart and the pericardium carefully removed. Heart contractions were measured with a force transducer (AD instruments). Heart rate was acquired via a PowerLab […] (AD instruments) controlled by LabChart 7 (AD instruments). The heart was regularly washed with ringer and drugs were applied directly to the heart.

Goa = type: cell-based, human; conditions: PTX-treated cells
Experimental: Cells were then incubated for 24 hours before addition of 100 ng/ml PTX, to inhibit activity of endogenous Gαi/o, and then incubated for a further 16-18 hours. Transfected cells were then assayed as per cAMP inhibition experiments, but co-stimulated with agonist and 100 nM forskolin.
as §2

[6] = IV, adenosine 1 mg·kg^−1, BnOCPA 10 μg·kg^−1, CPA 420 ng·kg^−1
[7] = rat hippocampal slices, CA1, read-out: IC50, inhibition of synaptic transmission (fEPSP slope)

Cn1c(=O)c2[nH]c(C3CCCC3)nc2n(C)c1=O [8-CPT, 8-cyclopentyltheophylline]
effect of the A1 receptor antagonist on agonist inhibition of synaptic transmission ([1]; 8-CPT 2 μM (adenosine) or 4 μM (BnOCPA)): reversed the inhibition of synaptic transmission caused by adenosine

NCC(CC(=O)O)c1ccc(Cl)cc1 (stereo not drawn) [baclofen]
mean hyperpolarisation produced by baclofen in the presence of BnOCPA ([2]; BnOCPA 300 nM): 6.5±0.43 mV | membrane potential after baclofen in the presence of BnOCPA (example) ([2]; baclofen (10 µM), BnOCPA 300 nM, from −67 mV): −74 mV | mean hyperpolarisation produced by baclofen in control conditions ([2]; without BnOCPA): 6.3±0.76 mV

Goa interfering peptide: peptide interfering with G protein signalling, sequence MGIANNLRGCGLY
effect of peptide on adenosine-induced outward current [3]: caused a significant attenuation of the adenosine-induced outward current | mean amplitude of the adenosine-induced outward current with intracellular peptide ([3]; adenosine 10 μM): 20.9±3.6 pA

scrambled peptide: scrambled version of the Goa peptide, sequence LNRGNAYLCIGMG
effect of peptide on adenosine-induced outward current [3]: neither the scrambled peptide nor the Gob peptide had any effect on current amplitude | mean amplitude of the adenosine-induced outward current with intracellular peptide ([3]; adenosine 10 μM): 43.4±2.4 pA

Nc1ncnc2c1ncn2[C@@H]1O[C@H](CO)[C@@H](O)[C@H]1O [adenosine]
MAP after adenosine co-injected with BnOCPA ([4]; IV co-injection): 51±4 mmHg | change of HR by adenosine co-injected with BnOCPA ([4]; IV co-injection): about 12% | mean change of HR by adenosine co-injected with BnOCPA ([4]; IV co-injection): 51±4 BPM | change of HR [4, 6]: about 66% | heart rate (HR) after injection [4, 6]: 147±12 BPM | mean arterial blood pressure (MAP) after injection [4, 6]: 46±4 mmHg | reduction of MAP ([4]; adenosine IV): about 47% | effect on HR and BP ([4]; single anaesthetised rat preparation, IV): HR and BP depression | effect on seizure activity [5]: reversibly blocks seizure activity | effect on seizure activity ([5]; listed as Adenosine): rapidly and reversibly abolished seizure activity | mean amplitude of the outward current induced by adenosine ([3]; adenosine 10 μM, control conditions, held at −60 mV): 43.9±3.1 pA | IC50 ([1]; Rattus norvegicus, read-out: IC50, inhibition of synaptic transmission by adenosine with 8-CPT, in the presence of 2 μM 8-CPT): 125 ± 10 µM | IC50 [1, 7]: 20 ± 4.3 µM | membrane potential after agonist ([2]; adenosine 100 μM, CPA 300 nM): −74.1±1.5 mV | mean change of membrane potential (hyperpolarisation) ([2]; adenosine 100 μM, CPA 300 nM, BnOCPA 300 nM-1 μM): −4.7±0.5 mV | reduction of heart rate (isolated frog heart; adenosine 30 μM): about 15% | reduction of heart rate by adenosine following BnOCPA (isolated frog heart; adenosine 30 μM after BnOCPA 300 nM): 0.27±0.2 BPM | reduction / change of heart rate (isolated frog heart; adenosine 30 μM, BnOCPA 300 nM, CPA): 6.25±0.6 BPM | heart rate after application (isolated frog heart; adenosine 30 μM, from 42±1.2 BPM): 35.5±1.2 BPM

OC[C@H]1O[C@@H](n2cnc3c(N[C@@H]4CCC[C@H]4O)ncnc32)[C@H](O)[C@@H]1O [HOCPA]
activation of / coupling to Goa (Goa): coupled to a range of Gi/o subunits, and in particular Goa

CCNC(=O)[C@H]1O[C@@H](n2cnc3c(N)ncnc32)[C@H](O)[C@@H]1O [NECA, 5′-(N-Ethylcarboxamido) adenosine]
effect on seizure activity [5]: rapidly and reversibly abolished seizure activity; also recorded: blocks seizure activity in a reversible manner | IC50 [1, 7]: 0.0083 ± 0.003 µM | activation of / coupling to Goa (Goa): coupled to a range of Gi/o subunits, and in particular Goa

Gob interfering peptide: peptide interfering with G protein signalling, sequence MGIQNNLKYIGIC
effect of peptide on adenosine-induced outward current [3]: neither the scrambled peptide nor the Gob peptide had any effect on current amplitude | mean amplitude of the adenosine-induced outward current with intracellular peptide ([3]; adenosine 10 μM): 37.4±2.2 pA
